Assay results published in PubChem BioAssay AID624404 (Broad Institute, 2012).
Inconclusive results are not listed. Active and inactive are the calls of the source.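 How the source made its calls: active means luciferase signal rise whose fitted curve crosses a set activity limit at or below the top valid tested dose; inconclusive means flat fit with 30 to 70% rise, or poor fit; inactive means signal falling, flat within 30%, or crossing above top dose.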

system: D54 LucT luciferase reporter counterscreen, luminescence, 24 h; test: reporter signal increase, D54 LucT cells – cell-based, luminescence, cherry pick, counter-screen for N-linked glycosylation inhibitor project, dose response (AID 624404)

SMILES	AC35
COc1ccccc1CCC(=O)Nc1ccc2c(c1)c(=O)n(C)n2-c1cccs1	2.33 µM
c1ccc(CNc2nc(-c3ccccc3)nc3ccccc23)cc1	3.01 µM
CC12CC[C@H]3[C@@H](CCC4(O)C[C@H](O)CCC34/C=N/NC(=O)c3ccccc3[N+](=O)[O-])C1(O)CCC2C1=CC(=O)OC1 (stereo partly specified)	4.03 µM
Cc1ccc(C(=O)NCc2nnc(SCC(=O)NC(C)c3ccccc3)n2C)cc1 (stereo unspecified)	2.43 µM
COc1ccc(CNC(=O)C/C(C)=N/NC(=O)COc2ccc(C)cc2Br)cc1	3.09 µM
COc1cc(C(=O)Nc2cc(C(F)(F)F)ccc2N2CCOCC2)ccc1OCC(=O)N1CCOCC1	2.13 µM
COc1ccc(NC(=O)C2Cc3c(-c4cccc(NC(C)=O)c4)ccnc3O2)cc1 (stereo unspecified)	0.0189 µM
COc1cccc(C2=CC(c3cccs3)n3nnnc3N2)c1 (stereo unspecified)	0.951 µM
O=C(/C=C/Sc1ccccc1)c1ccc(Cl)cc1	0.37 µM
CCOC(=O)c1c(C)[nH]c(-c2csc(N)n2)c1C	0.787 µM
Cc1c2cnccc2c(C)c2c1oc1ccccc12	3.32 µM
Cc1ccc(S(=O)(=O)N(C)C[C@H]2Oc3ccc(NC(=O)C4CCCCC4)cc3C(=O)N([C@H](C)CO)C[C@H]2C)cc1	0.555 µM
O=c1cc(-c2ccc(O)cc2)oc2cc(O)c(C3OC(CO)C(O)C(O)C3O)c(O)c12 (stereo unspecified)	0.0151 µM
COc1ccccc1NC(=O)c1cnc(SCC(=O)NCC2CCCO2)n(C)c1=O (stereo unspecified)	4.93 µM
Cc1cccc(N2CCN(C(=O)c3ccc(Cl)c(S(=O)(=O)NCc4ccco4)c3)CC2)c1C	0.202 µM
COCCNC(=S)N1CCc2cc(OC)c(OC)cc2C1c1cccs1 (stereo unspecified)	0.352 µM
Cc1ccc(-c2cc(C(=O)NCC(c3ccccc3)N(C)C)c3ccccc3n2)o1 (stereo unspecified)	3.3 µM
O=C(CN1CCC(O)(c2cccc(F)c2)CC1)NCCc1c[nH]c2ccccc12	0.972 µM
CC(C)(C)OC(=O)[C@H](Cc1ccccc1)NC(=O)c1nc[nH]c1C(=O)N1CCc2ccccc2C1	2.55 µM
O=C(NCCN1C(=O)S/C(=C\c2ccc(Cl)cc2Cl)C1=O)C1=COCCO1	3.41 µM
O=C(Nc1cccc2ncccc12)c1ccc([N+](=O)[O-])o1	4.57 µM
COc1ccc2c(c1)[C@H]1[C@H](CO2)[C@H](c2ccccc2)[C@]2(C)C(=O)Nc3cc(C)ccc3C(=O)N12	0.0668 µM

SMILES	AC35
CN(C)CCNc1cccc2sc3ccc(O)cc3c(=O)c12	1.98 µM
Cc1ccc(C)c(NC(=S)NC(NC(=O)Cc2cccc3ccccc23)C(Cl)(Cl)Cl)c1 (stereo unspecified)	3.55 µM
Cc1cc(NCCCn2ccnc2)n2nc(C)c(-c3ccccc3)c2n1	2.29 µM
O=C(NCc1cccs1)C1Cc2c(-c3ccc(Cl)cc3)ccnc2O1 (stereo unspecified)	0.166 µM
CCOc1ccc(/C=C/C(=O)c2ccccc2)cc1OC	1.26 µM
COc1cc(F)ccc1-c1csc(C(NC(C)=O)c2ccc(F)c(F)c2)n1 (stereo unspecified)	0.27 µM
O=C(Nc1c(Cl)ccc2nsnc12)c1ccc([N+](=O)[O-])o1	0.778 µM
CN1/C(=C/C=C(/C#N)C(N)=O)C(C)(C)c2ccccc21	0.00724 µM
Cc1ccc(C2=NN(C(=O)CSc3nccn3C)C(c3ccco3)C2)cc1 (stereo unspecified)	0.323 µM
c1ccc(N=Nc2ccc3cccccc2-3)cc1	0.355 µM
O=C(Nc1ccncc1)C1CCCN(S(=O)(=O)c2cccc3cccnc23)C1 (stereo unspecified)	4.67 µM
COc1ccc(/C=N\NC(=O)c2sccc2C)cc1Cn1nc(C)cc1C	0.28 µM
Cc1[nH]c2ccccc2c1/C=N/NC(=O)c1cc(-c2ccncc2)nc2ccccc12	2.06 µM
COc1ccccc1/C=N/NC(=O)c1cc2c(OC)c(OC)ccc2[nH]1	0.987 µM
CCOC(=O)c1c(C)c(C(=O)Nc2cc(F)ccc2F)c(C)n1C	3.02 µM
Cc1nnc2ccc(-c3ccc(NC(=O)c4ccco4)cc3)nn12	0.644 µM
CC(C)n1c(/C=C/[C@H](O)C[C@H](O)CC(=O)O)c(-c2ccc(F)cc2)c2ccccc21	0.37 µM
O=c1cc(-c2ccccc2)[nH]c2cc(F)ccc12	2.38 µM
COC(=O)Nc1nc2ccc(-c3n[nH]c(=O)c4ccccc34)cc2[nH]1	0.282 µM
COc1cc2c(cc1OC)CN(c1ccc(C(F)(F)F)cn1)CC2	2.5 µM
COc1ccc([C@@H]2[C@@H]3C(=O)N(C(C)(C)C)C(=O)[C@@H]3[C@]3(Cc4ccccc4)C(=O)N(c4cccc(Cl)c4)C(=O)N23)cc1	2.18 µM
CCCC(=O)Nc1nc2ccc(NC(=O)c3c(F)c(F)c(OC)c(F)c3F)cc2s1	2.27 µM

SMILES	AC35
COc1ccc(OC)c(Nc2ncnc3c2cnn3-c2cccc(C)c2)c1	4.59 µM
CCOC(=O)N1CCN(C(=O)c2cc(-c3ccncc3)nc3ccccc23)CC1	5.63 µM
O=C(/C=C/c1cccc(Br)c1)c1ccc2c(c1)OCO2	0.951 µM
COc1ccc(/C=C/C(=O)c2ccccc2)cc1COc1ccccc1F	> 19.5 µM (inactive)
CCNC(=O)COc1ccc(/C=C2\COc3ccccc3C2=O)cc1OC	4.8 µM
Cc1ccc(Nc2nc(N)nc(CN3CCN(Cc4ccccc4)CC3)n2)cc1Cl	0.107 µM
CCOc1ccc(N2C(=O)Nc3ccccc3C2(O)C(=O)N2CCN(c3ccccn3)CC2)cc1 (stereo unspecified)	1.2 µM
CCN(CCCNC(=O)CCCOc1cc(=O)n(C)c2ccccc12)Cc1ccccc1	0.51 µM
COC(=O)[C@@H]1C[C@H]1[C@@H](NP(=O)(c1ccccc1)c1ccccc1)c1ccccc1	3.1 µM
Nc1nc(-c2ccccc2)cc(-c2ccccc2O)n1	1.76 µM
O=C(NC1CCCCC1)c1ccc([N+](=O)[O-])o1	1.37 µM
CC(=O)NC(c1cccc(F)c1)c1nc(-c2ccccc2C)cs1 (stereo unspecified)	0.263 µM
COc1ccc(/C(C)=N/NC(=O)c2ccccc2OCc2ccccc2)c(OC)c1	0.056 µM
O=C(Nc1ncccc1O)c1ccc(S(=O)(=O)Nc2ccccc2)cc1	2.19 µM
CC1(C(=O)NCCC(F)(F)F)Cc2c(-c3cccc(C(F)(F)F)c3)ccnc2O1 (stereo unspecified)	> 19.5 µM (inactive)
COc1ccc(-n2c(=S)[nH]c3cc(C(=O)Nc4ccc(F)cc4)ccc3c2=O)c(OC)c1	1.47 µM
COc1ccc(NC(=O)CSc2nc3ccsc3c(=O)n2Cc2ccccn2)c(OC)c1	> 19.5 µM (inactive)
COc1ccc(Nc2oc(-c3ccc(Cl)cc3)nc2C#N)cc1	0.202 µM
N#Cc1c(N)n(CCc2ccc(F)cc2)c2nc3ccccc3nc12	1.88 µM
COc1cc(C(=O)Nc2ccc3c(c2)nc(C)n3C)cc(OC)c1OC	1.13 µM
C[C@@H](NC(=O)c1nc[nH]c1C(=O)N1CCN(c2ccccc2)CC1)c1ccccc1	1.83 µM
CCOc1ccc(C(=O)n2cc(C(=O)OC)c3ccccc32)cc1	6.03 µM

SMILES	AC35
Cc1ccc(C=Nc2ccccc2C(N)=O)cc1	2.75 µM
Cc1ccc(C(=O)N/C(=C/c2cccs2)C(=O)NCCc2c[nH]c3ccccc23)cc1	1.17 µM
O=C(c1ccc(CS(=O)c2ccccc2Cl)o1)N1CCN(c2ccccn2)CC1 (stereo unspecified)	5.64 µM
COc1cc2c(cc1OC)C(c1ccccc1)N(C(=O)c1ccccc1)CC2 (stereo unspecified)	0.321 µM
Cc1ccc(N2CCN(C3=NC(=O)/C(=C\c4cn[nH]c4-c4ccccc4)S3)CC2)cc1	0.793 µM
CCOC(=O)c1c(NC(=O)c2cc3n(n2)C(C(F)(F)F)CC(c2cccs2)N3)sc(C)c1C (stereo unspecified)	5.36 µM
Cc1cccc(N2CCN(C(=O)c3cc(S(=O)(=O)N4CCCC4)cn3C)CC2)c1C	0.0333 µM
CCCNC(=O)c1cc(-c2ccco2)on1	0.903 µM
COc1cccc(C(N)c2nc(-c3csc4ccccc34)cs2)c1 (stereo unspecified)	4.88 µM
CCOC(=O)C1CCN(c2c(N3CCN(Cc4ccccc4)CC3)c(=O)c2=O)CC1	1.22 µM
COc1cc(/C=N/NC(=O)c2ccc(-c3ccccc3)cc2)cc(OC)c1OC	4.6 µM
NNC(=O)c1oc2nc(-c3cccs3)cc(-c3ccco3)c2c1N	2.93 µM
CCOC(=O)c1[nH]c(C)c(C(=O)Nc2cc(Cl)ccc2C)c1C	2.24 µM
CCc1ccc(N2C(=O)NC(=O)/C(=C\C=C\c3ccco3)C2=O)cc1	1.74 µM
COc1ccc(CC(=O)N(Cc2ccccc2)c2ccc(C)cc2)cc1OC	1.04 µM
Cc1noc(C)c1COc1ccc(C(=O)NNC(=O)c2ccccc2)cc1	0.271 µM
COc1ccc(-c2cc3ccccc3oc2=O)cc1NC(=O)c1ccc([N+](=O)[O-])o1	0.837 µM
C=CCn1c(SCc2c(C)noc2C)nc2sc3c(c2c1=O)CCC(C)C3 (stereo unspecified)	0.238 µM
COc1cccc(C2=CC(c3cccc(OC)c3OC)n3nnnc3N2)c1 (stereo unspecified)	0.765 µM
COc1ccc(OC)c(Nc2nc(-c3c(C)nc4ncccn34)cs2)c1	1.1 µM
CCCCCCn1c(=O)n2n(c1=O)[C@@H]1CN(S(=O)(=O)c3ccc(C)cc3)C[C@]1(O)[C@@H](OC(=O)NCc1ccccc1)C2	0.717 µM
COC(=O)c1cn(C(=O)c2cccc3ccccc23)c2ccccc12	0.284 µM

SMILES	AC35
C[C@@]12C(=O)Nc3cc(F)ccc3C(=O)N1[C@H]1c3ccccc3OC[C@@H]1[C@@H]2c1ccccc1	1.51 µM
CCOC(=O)c1[nH]c2c(c1-c1ccccc1)C(=O)CC(c1ccccc1)C2 (stereo unspecified)	2.69 µM
Cc1cc(C)cc(-n2c3ccc(NC(=O)Cc4cccc5ccccc45)cc3c(=O)n2C)c1	5.01 µM
COc1ccc(CC(=O)Nc2ccc(-c3ccc4nnc(C)n4n3)cc2)cc1OC	1.8 µM
CCN(CCCNC(=O)COc1cc(=O)n(CC)c2ccccc12)Cc1ccccc1	0.517 µM
COc1ccc(Nc2nc(-c3sc(C)nc3C)cs2)c(OC)c1	0.075 µM
CCc1ccc(/C=N/NC(=O)c2nnn(-c3nonc3N)c2C(C)C)cc1	2.63 µM
CC(=O)NC(=C(Cl)Cl)S(=O)(=O)c1ccccc1	3.67 µM
COc1cc(C(=O)NCC(=O)NCCN2C(=O)S/C(=C\c3ccccc3Cl)C2=O)cc(OC)c1OC	1.15 µM
CCOc1ncccc1C(=O)Nc1cc2c(cc1Br)OCCO2	0.169 µM
Cn1c(=O)[nH]c(=O)c2c1nc(SCC(N)=O)n2Cc1cccc(Br)c1	0.421 µM
Cc1cc(NS(=O)(=O)c2ccc(NC(=O)COc3c(C)cc(Br)cc3C)cc2)no1	1.66 µM
CSc1cccc(NC(=O)CCCOc2cc(=O)n(C)c3ccccc23)c1	4.53 µM
Oc1[nH]c(N=C2N=c3ccccc3=N2)c2ccccc12	0.0172 µM
CN(CCCNC(=O)CCCOc1cc(=O)n(C)c2ccccc12)Cc1ccccc1	5.23 µM
Cn1nc(C(=O)Nc2cccc(S(=O)(=O)N3CCCCC3)c2)c2ccccc2c1=O	0.0503 µM
COc1cc2c(cc1OC)C(=O)N1[C@H]3c4cc(Cl)ccc4OC[C@@H]3[C@H](c3ccccc3)[C@]1(C)C(=O)N2	0.449 µM
CCOc1cc(C)nc(NCc2ccccc2)n1	5.19 µM
